Measurements from patent US9326513B2, “Fungicidal compositions” (Syngenta Participations AG, priority 2011, dated 2016).

Legend:
Type in all cases: in vivo
Details in all cases: foliar, compared to untreated control leaf disks, read-out: disease control
Pyrenophora teres = Pyrenophora teres / barley / leaf disc preventative (net blotch)
Excerpt: Pyrenophora teres/Barley/Leaf Disc Preventative (Net Blotch) Barley leaf segments cv. Hasso were placed on agar in a multiwell plate (24-well format) and sprayed with the formulated test compound diluted in water. The leaf segments were inoculated with a spore suspension of the fungus 2 days after application.

[1] = tested on: Puccinia recondita f. sp. tritici; experiment: Puccinia recondita f. sp. tritici / wheat / leaf disc curative (brown rust)
Protocol: Puccinia recondita f. sp. tritici/Wheat/Leaf Disc Curative (Brown Rust) Wheat leaf segments cv. Kanzler are placed on agar in multiwell plates (24-well format). The leaf segments are inoculated with a spore suspension of the fungus. Plates were stored in darkness at 19° C. and 75% rh. The formulated test compound diluted in water was applied 1 day after inoculation.

[2] = tested on: Puccinia recondita f. sp. tritici; experiment: Puccinia recondita f. sp. tritici / wheat / leaf disc preventative (brown rust)
Excerpt: Puccinia recondita f. sp. tritici/Wheat/Leaf Disc Preventative (Brown Rust) Wheat leaf segments cv. Kanzler were placed on agar in multiwell plates (24-well format) and sprayed with the formulated test compound diluted in water. The leaf disks were inoculated with a spore suspension of the fungus 1 day after application.

[3] = tested on: Blumeria graminis f. sp. tritici (Erysiphe graminis f. sp. tritici); experiment: Blumeria graminis f. sp. tritici / wheat / leaf disc preventative (powdery mildew on wheat)
Protocol: Blumeria graminis f. sp. tritici (Erysiphe graminis f. sp. tritici)/Wheat/Leaf Disc Preventative (Powdery Mildew on Wheat)
Wheat leaf segments cv. Kanzler were placed on agar in a multiwell plate (24-well format) and sprayed with the formulated test compound diluted in water. The leaf disks were inoculated by shaking powdery mildew infected plants above the test plates 1 day after application. The inoculated leaf disks were incubated at 20° C. and 60% rh under a light regime of 24 h darkness followed by 12 h light/12 h darkness in a climate chamber and the activity of a compound was assessed as percent disease control compared to untreated when an appropriate level of disease damage appears on untreated check leaf segments (6-8 days after application).
The following compounds gave at 200 ppm give at least 50% disease control in this test when compared to untreated control leaf disks under the same conditions, which show extensive disease development: […]

Row | SMILES | pest or weed control at 200 ppm (Pyrenophora teres) [%] | pest or weed control at 200 ppm [1] [%] | pest or weed control at 200 ppm [2] [%] | pest or weed control at 200 ppm [3] [%]
1 | CCN(C)/C=N/c1cc(Br)c(OCCCC=C(C)C)nc1C [Q.079] | ≥ 50 |  |  | 
2 | C=C(C)CC(CC(=C)C)Oc1nc(C)c(/N=C/N(C)CC)cc1Br [Q.232] | ≥ 50 | ≥ 50 | ≥ 50 | 
3 | COc1ccccc1COc1ccc(/N=C/N(C)C(C)C)c(C)n1 [Q.366] | ≥ 50 | ≥ 50 | ≥ 50 | 
4 | C#Cc1cc(/N=C/N(C)CC)c(C)nc1O[C@H]1CC[C@H](C(C)C)CC1 [Q.253] | ≥ 50 | ≥ 50 | ≥ 50 | 
5 | CCN(C)/C=N/c1cc(Br)c(OC2CCNCC2)nc1C [Q.053] | ≥ 50 |  |  | ≥ 50
6 | CCN(C)/C=N/c1cc(Br)c(OC(C)c2cc(F)cc(F)c2)nc1C (stereo not drawn) [Q.256] | ≥ 50 |  |  | 
7 | CCc1cc(/N=C/N(C)CC)c(C)nc1O[C@H]1CC[C@H](C(C)C)CC1 [Q.252] | ≥ 50 |  | ≥ 50 | 
8 | COc1cc(COc2ccc(/N=C/N(C)C(C)C)c(C)n2)cc(OC)c1 [Q.377] | ≥ 50 | ≥ 50 | ≥ 50 | 
9 | CCN(C)/C=N/c1cc(Br)c(OCc2cccc(C(C)C)c2)nc1C [Q.169] | ≥ 50 | ≥ 50 | ≥ 50 | 
10 | CCN(C)/C=N/c1cc(Br)c(OCc2cccc(C#Cc3ccccc3)c2)nc1C [Q.311] | ≥ 50 | ≥ 50 | ≥ 50 | 
11 | CCN(C)/C=N/c1cc(Br)c(OC(C)c2cccs2)nc1C (stereo not drawn) [Q.237] | ≥ 50 |  | ≥ 50 | 
12 | CCN(C)/C=N/c1cc(Br)c(OC2CCc3ccc(Br)cc3C2)nc1C (stereo not drawn) [Q.067] | ≥ 50 |  |  | 
13 | CCN(C)/C=N/c1cc(Br)c(OC(C)c2ccsc2)nc1C (stereo not drawn) [Q.245] | ≥ 50 |  | ≥ 50 | ≥ 50
14 | CCN(C)/C=N/c1cc(Br)c(OC2C=CC(=O)CC2)nc1C (stereo not drawn) [Q.281] |  | ≥ 50 | ≥ 50 | ≥ 50
15 | CCN(C)/C=N/c1cc(Br)c(OC2CCC(=O)CC2)nc1C [Q.031] |  | ≥ 50 | ≥ 50 | ≥ 50
16 | CCN(C)/C=N/c1cc(Br)c(OC2CCC(O)CC2)nc1C (stereo not drawn) [Q.213] |  | ≥ 50 | ≥ 50 | ≥ 50
17 | CCOc1nc(C)c(/N=C/N(C)CC)cc1Br [Q.085] |  | ≥ 50 | ≥ 50 | ≥ 50
18 | CCN(C)/C=N/c1ccc(OCc2ccccc2OC)nc1C [Q.367] |  | ≥ 50 | ≥ 50 | ≥ 50
19 | CCN(C)/C=N/c1cc(Br)c(OCc2ccccc2C#Cc2ccccc2)nc1C [Q.310] |  | ≥ 50 | ≥ 50 | ≥ 50
20 | CCN(C)/C=N/c1cc(Br)c(OC2Cc3cc(C#N)c(OC)cc3C2)nc1C (stereo not drawn) [Q.369] |  | ≥ 50 | ≥ 50 | ≥ 50
21 | CCN(C)/C=N/c1cc(Br)c(OC(C)CC[Si](C)(C)C)nc1C (stereo not drawn) [Q.273] |  | ≥ 50 | ≥ 50 | ≥ 50
22 | C=CCN(C)/C=N/c1cc(Br)c(OC(C)c2cc(F)cc(F)c2)nc1C (stereo not drawn) [Q.192] |  | ≥ 50 | ≥ 50 | ≥ 50
23 | CCN(C)/C=N/c1cc(Br)c(OC2C(C)CCCC2C)nc1C (stereo not drawn) [Q.094] |  | ≥ 50 | ≥ 50 | ≥ 50
24 | CCC(Oc1ccc(/N=C/N(C)CC)c(C)n1)c1cc(C)cc(C)c1 (stereo not drawn) [Q.359] |  | ≥ 50 | ≥ 50 | ≥ 50
